For orientation: IC50 means the midpoint of a concentration-inhibition curve.

Structures can show the parent of a compound that is named as a salt. Where only a bound is given, the exact number is not on record here.

Common to all, as to type: biochemical
One experiment addresses T1, AKT1 (Homo sapiens, UniProt P31749).
T1 construct: purchased SignalChem
The experiment in a line: AKT Kinase Assay (IMAP fluorescent polarisation) vs AKT1. The note with it: activated AKT1, FAM Crosstide substrate. A digest of the protocol: (§1)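 Each activated AKT isoform, at a pre-determined linear-range concentration, was pre-incubated 45 min at room temperature with compound in a fourteen-point half-log series. ATP plus 5′FAM-Crosstide then reacted 1 h; IMAP binding reagent stopped it (1 h). Fluorescence polarisation (ex 485/em 528 nm) versus vehicle gave IC50 by non-linear regression.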

The target in a further experiment is T2, AKT2 (Homo sapiens, UniProt P31751).
T2 construct: purchased SignalChem
The experiment in a line: AKT Kinase Assay (IMAP fluorescent polarisation) vs AKT2. The note with it: activated AKT2, FAM Crosstide substrate. A digest of the protocol: as §1

A further experiment has as its target T3, AKT3 (Homo sapiens, UniProt Q9Y243).
T3 construct: purchased SignalChem
The experiment in a line: AKT Kinase Assay (IMAP fluorescent polarisation) vs AKT3. The note with it: activated AKT3, FAM Crosstide substrate. The method in brief:
as §1

T2 sequence (P31751 whole entry): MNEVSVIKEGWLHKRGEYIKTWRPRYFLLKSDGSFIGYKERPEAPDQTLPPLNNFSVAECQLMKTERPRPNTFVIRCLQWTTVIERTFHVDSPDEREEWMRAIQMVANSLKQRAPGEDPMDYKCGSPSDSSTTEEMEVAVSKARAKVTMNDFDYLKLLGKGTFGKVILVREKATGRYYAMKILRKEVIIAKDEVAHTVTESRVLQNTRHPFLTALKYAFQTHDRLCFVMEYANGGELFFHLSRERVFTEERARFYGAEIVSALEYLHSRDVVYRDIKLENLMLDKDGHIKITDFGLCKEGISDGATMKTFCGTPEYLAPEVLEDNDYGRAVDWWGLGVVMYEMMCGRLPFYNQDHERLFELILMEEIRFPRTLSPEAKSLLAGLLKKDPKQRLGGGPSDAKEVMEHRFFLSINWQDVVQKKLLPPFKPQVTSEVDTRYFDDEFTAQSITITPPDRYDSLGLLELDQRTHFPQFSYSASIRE
T3 sequence (Q9Y243 whole entry): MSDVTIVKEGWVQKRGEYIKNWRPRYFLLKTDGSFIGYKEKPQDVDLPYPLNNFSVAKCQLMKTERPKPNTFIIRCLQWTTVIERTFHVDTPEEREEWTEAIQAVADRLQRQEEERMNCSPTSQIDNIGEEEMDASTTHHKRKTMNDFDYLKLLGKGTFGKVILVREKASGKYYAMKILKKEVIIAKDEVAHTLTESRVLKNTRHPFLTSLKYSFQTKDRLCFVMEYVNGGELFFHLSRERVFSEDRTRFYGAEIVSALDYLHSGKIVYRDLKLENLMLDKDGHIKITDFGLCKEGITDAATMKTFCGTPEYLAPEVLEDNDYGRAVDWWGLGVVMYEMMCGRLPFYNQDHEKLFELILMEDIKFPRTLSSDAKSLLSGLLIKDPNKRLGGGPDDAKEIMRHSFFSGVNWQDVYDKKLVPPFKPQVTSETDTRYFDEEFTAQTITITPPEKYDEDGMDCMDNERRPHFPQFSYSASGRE
T1 sequence (P31749 whole entry): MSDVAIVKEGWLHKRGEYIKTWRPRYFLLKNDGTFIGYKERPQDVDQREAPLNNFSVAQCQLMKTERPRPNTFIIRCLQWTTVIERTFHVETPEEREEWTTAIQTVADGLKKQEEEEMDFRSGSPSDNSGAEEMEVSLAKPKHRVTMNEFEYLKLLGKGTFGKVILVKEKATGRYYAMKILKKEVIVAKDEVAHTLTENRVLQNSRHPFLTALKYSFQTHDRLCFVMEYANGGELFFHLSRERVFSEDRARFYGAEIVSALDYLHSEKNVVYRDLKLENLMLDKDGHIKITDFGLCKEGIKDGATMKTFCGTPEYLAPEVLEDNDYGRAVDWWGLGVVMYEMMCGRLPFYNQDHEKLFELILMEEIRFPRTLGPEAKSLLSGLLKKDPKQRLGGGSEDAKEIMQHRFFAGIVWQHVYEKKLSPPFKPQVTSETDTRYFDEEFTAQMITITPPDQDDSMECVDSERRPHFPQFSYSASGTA

For `COc1nc(N2CCN(C(C)=O)CC2)nc2oc(-c3ccc(C4(N)CCC4)cc3)c(-c3ccccc3)c12` [Example 45, 1-(4-(6-(4-(1-Aminocyclobutyl)phenyl)-4-methoxy-5-phenylfuro[2,3-d]pyrimidin-2-yl)piperazin-1-yl)ethanone], the IC50 is 0.1 to 1 µM on AKT1, 0.1 to 1 µM on AKT2 and 1 to 10 µM at AKT3.
As for `Cn1cc(C(N)=O)c2oc(-c3ccc(C4(N)CCC4)cc3)c(-c3ccccc3)c2c1=O` [Example 117, 2-(4-(1-Aminocyclobutyl)phenyl)-5-methyl-4-oxo-3-phenyl-4,5-dihydrofuro[3,2-c]pyridine-7-carboxamide], the values for the IC50 at AKT1, on AKT2 and on AKT3 were 0.1 to 1 µM, 0.1 to 1 µM and 1 to 10 µM, respectively.
For the compound `NC1(c2ccc(-c3oc4ncn(CC5CC5)c(=O)c4c3-c3ccccc3)cc2)CCC1` [Example 100], the IC50 on AKT1 was 1 to 10 µM; at AKT2, no more than 0.1 µM; on AKT3, 1 to 10 µM.
As to `COCCn1c(SC)nc2oc(-c3ccc(C4(N)CCC4)cc3)c(-c3ccccc3)c2c1=O` [Example 67, 6-(4-(1-Aminocyclobutyl)phenyl)-3-(2-methoxyethyl)-2-(methylthio)-5-phenylfuro[2,3-d]pyrimidin-4(3H)-one, HCl], the IC50 on AKT1 is 0.1 to 1 µM; on AKT2, no more than 0.1 µM; on AKT3, 0.1 to 1 µM.
`C[C@@H](CO)Nc1nc2oc(-c3ccc(C4(N)CCC4)cc3)c(-c3ccccc3)c2c(=O)n1C` [Example 98, (S)-6-(4-(1-Aminocyclobutyl)phenyl)-2-(1-hydroxypropan-2-ylamino)-3-methyl-5-phenylfuro[2,3-d]pyrimidin-4(3H)-one]: the results for the IC50 on AKT1, at AKT2 and at AKT3 were 0.1 to 1 µM, 0.1 to 1 µM and greater than 10 µM, respectively.
As to `Cc1nc2oc(-c3ccc(C4(N)CCC4)cc3)c(-c3ccccc3)c2c(=O)n1C` [Example 87, 6-(4-(1-Aminocyclobutyl)phenyl)-2,3-dimethyl-5-phenylfuro[2,3-d]pyrimidin-4(3H)-one], the IC50 is 0.1 to 1 µM at AKT1, 0.1 to 1 µM at AKT2 and 1 to 10 µM on AKT3.
`COc1nc(N2CCC(N)CC2)nc2oc(-c3ccc(C4(N)CCC4)cc3)c(-c3ccccc3)c12` [Example 39, 1-(6-(4-(1-Aminocyclobutyl)phenyl)-4-methoxy-5-phenylfuro[2,3-d]pyrimidin-2-yl)piperidin-4-amine]: the IC50 on AKT1 was in the range of 0.1 to 1 µM; on AKT2 it was 0.1 to 1 µM; on AKT3, 1 to 10 µM.
Take `NC1(c2ccc(-c3oc4ncncc4c3-c3ccccc3)cc2)CCC1` [Example 20, 1-(4-(5-Phenylfuro[2,3-d]pyrimidin-6-yl)phenyl)cyclobutanamine]: the IC50 on AKT1 is 1 to 10 µM; on AKT2, 1 to 10 µM; on AKT3, greater than 10 µM.
With `NC1CCN(c2ncc3c(-c4ccccc4)c(-c4ccc(C5(N)CCC5)cc4)oc3n2)CC1` [Example 50, 1-(6-(4-(1-Aminocyclobutyl)phenyl)-5-phenylfuro[2,3-d]pyrimidin-2-yl)piperidin-4-amine], the IC50 on AKT1 was 1 to 10 µM; on AKT2, 0.1 to 1 µM; on AKT3, greater than 10 µM.
For `CCOc1nc(N2CCNCC2)nc2oc(-c3ccc(C4(N)CCC4)cc3)c(-c3ccccc3)c12` [Example 46, 1-(4-(4-Ethoxy-5-phenyl-2-(piperazin-14)furo[2,3-d]pyrimidin-6-yl)phenyl)cyclobutanamine, HCl] the same measures were 0.1 to 1 µM, 0.1 to 1 µM and 0.1 to 1 µM.
For the compound `CNc1nc(NCCO)nc2oc(-c3ccc(C4(N)CCC4)cc3)c(-c3ccccc3)c12` [Example 79, 2-(6-(4-(1-Aminocyclobutyl)phenyl)-4-(methylamino)-5-phenylfuro[2,3-d]pyrimidin-2-ylamino)ethanol, HCl], the IC50 on AKT1 is 0.1 to 1 µM; on AKT2, 1 to 10 µM; at AKT3 it was greater than 10 µM.
With `NC1(c2ccc(-c3oc4nc(N5CCNCC5)ncc4c3-c3ccccc3)cc2)CCC1` [Example 53, 1-(4-(5-Phenyl-2-(piperazin-1-yl)furo[2,3-d]pyrimidin-6-yl)phenyl)cyclobutanamine], the IC50 at AKT1 was 0.1 to 1 µM; on AKT2, 0.1 to 1 µM; at AKT3, greater than 10 µM.
Consider `NC1(c2ccc(-c3oc4ncc(-c5cn[nH]c5)nc4c3-c3ccccc3)cc2)CCC1` [Example 135, 1-(4-(7-Phenyl-2-(1H-pyrazol-4-yl)furo[2,3-b]pyrazin-6-yl)phenyl)cyclobutanamine], for which the IC50 at AKT1, on AKT2 and on AKT3 was 0.1 to 1 µM in each case.
Take `Cn1c(N2CC[C@@H](O)C2)nc2oc(-c3ccc(C4(N)CCC4)cc3)c(-c3ccccc3)c2c1=O` [Example 57, (R)-6-(4-(1-Aminocyclobutyl)phenyl)-2-(3-hydroxypyrrolidin-1-yl)-3-methyl-5-phenylfuro[2,3-d]pyrimidin-4(3H)-one]: the IC50 on AKT1 was 0.1 to 1 µM; at AKT2, no more than 0.1 µM; at AKT3 it was 1 to 10 µM.
The like results for `COc1nc(N2CCC(O)CC2)nc2oc(-c3ccc(C4(N)CCC4)cc3)c(-c3ccccc3)c12` [Example 40, 1-(6-(4-(1-Aminocyclobutyl)phenyl)-4-methoxy-5-phenylfuro[2,3-d]pyrimidin-2-yl)piperidin-4-ol] were, in that order, 0.1 to 1 µM, 0.1 to 1 µM and greater than 10 µM.
The like results for `NC1(c2ccc(-c3oc4ncc(COCc5ccccc5)nc4c3-c3ccccc3)cc2)CCC1` [Example 142, 1-(4-(2-(Benzyloxymethyl)-7-phenylfuro[2,3-b]pyrazin-6-yl)phenyl)cyclobutanamine] were, in that order, 0.1 to 1 µM, 0.1 to 1 µM and 1 to 10 µM.
For `NC1(c2ccc(-c3oc4ncccc4c3-c3ccccc3)cc2)CCC1` [Example 19, 1-(4-(3-Phenylfuro[2,3-b]pyridin-2-yl)phenyl)cyclobutanamine] the same measures were greater than 10 µM, greater than 10 µM and greater than 10 µM.
As to `Cn1cc(-c2cnc3oc(-c4ccc(C5(N)CCC5)cc4)c(-c4ccccc4)c3n2)cn1` [Example 136, 1-(4-(2-(1-Methyl-1H-pyrazol-4-yl)-7-phenylfuro[2,3-b]pyrazin-6-yl)phenyl)cyclobutanamine], the IC50 was 1 to 10 µM at AKT1, 1 to 10 µM on AKT2 and greater than 10 µM on AKT3.
Take `NC1(c2ccc(-c3oc4nc(NCCO)ncc4c3-c3ccccc3)cc2)CCC1` [Example 51, 2-((6-(4-(1-Aminocyclobutyl)phenyl)-5-phenylfuro[2,3-d]pyrimidin-2-yl)amino)ethanol]: the values for the IC50 at AKT1, on AKT2 and on AKT3 were 0.1 to 1 µM, 0.1 to 1 µM and greater than 10 µM, respectively.
On to `CC(C)n1cnc2oc(-c3ccc(C4(N)CCC4)cc3)c(-c3ccccc3)c2c1=O` [Example 107, 6-(4-(1-Aminocyclobutyl)phenyl)-3-isopropyl-5-phenylfuro[2,3-d]pyrimidin-4(3H)-one, HCl], for which the IC50 at AKT1 lay within 1 to 10 µM; on AKT2, 0.1 to 1 µM; on AKT3 it was 1 to 10 µM.
For `NC1(c2ccc(-c3oc4ncn(CCO)c(=O)c4c3-c3ccccc3)cc2)CCC1` [Example 102, 6-(4-(1-Aminocyclobutyl)phenyl)-3-(2-hydroxyethyl)-5-phenylfuro[2,3-d]pyrimidin-4(3H)-one, HCl], the figures for the IC50 at AKT1, on AKT2 and on AKT3 were 1 to 10 µM, 0.1 to 1 µM and 1 to 10 µM, respectively.
In the case of `COc1nc(N2CCOCC2)nc2oc(-c3ccc(C4(N)CCC4)cc3)c(-c3ccccc3)c12` [Example 13, 1-(4-(4-Methoxy-2-morpholino-5-phenylfuro[2,3-d]pyrimidin-6-yl)phenyl)cyclobutanamine], the half-inhibitory concentration (IC50) at AKT1 was in the range of 1 to 10 µM; on AKT2 it was 0.1 to 1 µM; at AKT3, 1 to 10 µM.
In the case of `NC1(c2ccc(-c3oc4ccccc4c(=O)c3-c3ccccc3)cc2)CCC1` [Example 29, 2-[4-(1-Amino-cyclobutyl)-phenyl]-3-phenyl-chromen-4-one hydrogen chloride*], the IC50 at AKT1 is 1 to 10 µM; on AKT2, 1 to 10 µM; on AKT3, greater than 10 µM.
Turning to `COC(=O)c1cn(C)c(=O)c2c(-c3ccccc3)c(-c3ccc(C4(N)CCC4)cc3)oc12` [Example 118, Methyl 2-(4-(1-aminocyclobutyl)phenyl)-5-methyl-4-oxo-3-phenyl-4,5-dihydrofuro[3,2-c]pyridine-7-carboxylate], the IC50 is no more than 0.1 µM at AKT1, 0.1 to 1 µM at AKT2 and 1 to 10 µM at AKT3.
For `NC(=O)c1cccc2c(-c3ccccc3)c(-c3ccc(C4(N)CCC4)cc3)oc12` [Example 9, 2-(4-(1-Aminocyclobutyl)phenyl)-3-phenylbenzofuran-7-carboxamide.2HCl] the same measures were 1 to 10 µM, 1 to 10 µM and greater than 10 µM.
In the case of `NC1(c2ccc(-c3oc4ncc([N+](=O)[O-])cc4c3-c3ccccc3)cc2)CCC1` [Example 21, 1-(4-(5-Nitro-3-phenylfuro[2,3-b]pyridin-2-yl)phenyl)cyclobutanamine], the IC50 was 1 to 10 µM on AKT1, 1 to 10 µM at AKT2 and greater than 10 µM at AKT3.
As to `NC1(c2ccc(-c3oc4ccnc(-c5cn[nH]c5)c4c3-c3ccccc3)cc2)CCC1` [Example 133, 1-(4-(3-Phenyl-4-(1H-pyrazol-4-yl)furo[3,2-c]pyridin-2-yl)phenyl)cyclobutanamine], the IC50 on AKT1 is 1 to 10 µM; at AKT2, 1 to 10 µM; on AKT3 it was greater than 10 µM.
Turning to `Cn1cc(-c2ccn[nH]2)c2oc(-c3ccc(C4(N)CCC4)cc3)c(-c3ccccc3)c2c1=O` [Example 116, 2-(4-(1-Aminocyclobutyl)phenyl)-5-methyl-3-phenyl-7-(1H-pyrazol-5-yl)furo[3,2-c]pyridin-4(5H)-one], the IC50 on AKT1 was no more than 0.1 µM; at AKT2, 0.1 to 1 µM; on AKT3 it was greater than 10 µM.

These data come from US20120309739A1, “AKT / PKB INHIBITORS” (ALMAC DISCOVERY LIMITED, priority 2009, published 2012).
